Assay results published in ChEMBL document CHEMBL4396916, “Novel potent substituted 4-amino-2-thiopyrimidines as dual VEGFR-2 and BRAF kinase inhibitors” (Eur J Med Chem, 2019).

Experiments:
K562 = assay: Growth inhibition of human K562 cells at 10 uM incubated for 48 hrs by sulforhodamine B assay relative to control; type: functional; conditions: K562, 48 h, read-out: GI
SK-MEL-5 = assay: Growth inhibition of human SK-MEL-5 cells at 10 uM incubated for 48 hrs by sulforhodamine B assay relative to control; type: functional; conditions: SK-MEL-5, 48 h, read-out: GI
SK-MEL-28 = assay: Growth inhibition of human SK-MEL-28 cells at 10 uM incubated for 48 hrs by sulforhodamine B assay relative to control; type: functional; conditions: SK-MEL-28, 48 h, read-out: GI
NCI-H522 = assay: Growth inhibition of human NCI-H522 cells at 10 uM incubated for 48 hrs by sulforhodamine B assay relative to control; type: functional; conditions: NCI-H522, 48 h, read-out: GI
ACHN = assay: Growth inhibition of human ACHN cells at 10 uM incubated for 48 hrs by sulforhodamine B assay relative to control; type: functional; conditions: read-out: GI
CCRF-CEM = assay: Growth inhibition of human CCRF-CEM cells at 10 uM incubated for 48 hrs by sulforhodamine B assay relative to control; type: functional; conditions: read-out: GI
OVCAR-8 = assay: Growth inhibition of human OVCAR8 cells at 10 uM incubated for 48 hrs by sulforhodamine B assay relative to control; type: functional; conditions: OVCAR-8, 48 h, read-out: GI
MOLT-4 = assay: Growth inhibition of human MOLT4 cells at 10 uM incubated for 48 hrs by sulforhodamine B assay relative to control; type: functional; conditions: MOLT-4, 48 h, read-out: GI
UACC-257 = assay: Growth inhibition of human UACC257 cells at 10 uM incubated for 48 hrs by sulforhodamine B assay relative to control; type: functional; conditions: UACC-257, 48 h, read-out: GI
NCI-H460 = assay: Growth inhibition of human NCI-H460 cells at 10 uM incubated for 48 hrs by sulforhodamine B assay relative to control; type: functional; conditions: NCI-H460, 48 h, read-out: GI
MDA-MB-435 = assay: Growth inhibition of human MDA-MB-435 cells at 10 uM incubated for 48 hrs by sulforhodamine B assay relative to control; type: functional; conditions: MDA-MB-435, 48 h, read-out: GI
T47D [1] = assay: Cytotoxicity against human T47D cells expressing wild type BRAF measured after 48 hrs by sulforhodamine B assay; type: functional, cell-based
MCF7 [2] = assay: Growth inhibition of human MCF7 cells at 10 uM incubated for 48 hrs by sulforhodamine B assay relative to control; type: functional; conditions: MCF7, 48 h, read-out: GI
IGROV-1 = assay: Growth inhibition of human IGROV1 cells at 10 uM incubated for 48 hrs by sulforhodamine B assay relative to control; type: functional; conditions: IGROV-1, 48 h, read-out: GI
LOX IMVI = assay: Growth inhibition of human LOXIMVI cells at 10 uM incubated for 48 hrs by sulforhodamine B assay relative to control; type: functional; conditions: read-out: GI
SR = assay: Growth inhibition of human SR cells at 10 uM incubated for 48 hrs by sulforhodamine B assay relative to control; type: functional; conditions: read-out: GI
BT-549 = assay: Growth inhibition of human BT549 cells at 10 uM incubated for 48 hrs by sulforhodamine B assay relative to control; type: functional; conditions: BT-549, 48 h, read-out: GI
DU-145 = assay: Growth inhibition of human DU145 cells at 10 uM incubated for 48 hrs by sulforhodamine B assay relative to control; type: functional; conditions: DU-145, 48 h, read-out: GI
UO-31 = assay: Growth inhibition of human UO31 cells at 10 uM incubated for 48 hrs by sulforhodamine B assay relative to control; type: functional; conditions: UO-31, 48 h, read-out: GI
UACC-62 = assay: Growth inhibition of human UACC62 cells at 10 uM incubated for 48 hrs by sulforhodamine B assay relative to control; type: functional; conditions: UACC-62, 48 h, read-out: GI
NCI/ADR-RES = assay: Growth inhibition of human NCI/ADR-RES cells at 10 uM incubated for 48 hrs by sulforhodamine B assay relative to control; type: functional; conditions: read-out: GI
SF-295 = assay: Growth inhibition of human SF295 cells at 10 uM incubated for 48 hrs by sulforhodamine B assay relative to control; type: functional; conditions: SF-295, 48 h, read-out: GI
EKVX = assay: Growth inhibition of human EKVX cells at 10 uM incubated for 48 hrs by sulforhodamine B assay relative to control; type: functional; conditions: read-out: GI
HCT-116 = assay: Growth inhibition of human HCT116 cells at 10 uM incubated for 48 hrs by sulforhodamine B assay relative to control; type: functional; conditions: HCT-116, 48 h, read-out: GI
CAKI-1 = assay: Growth inhibition of human Caki1 cells at 10 uM incubated for 48 hrs by sulforhodamine B assay relative to control; type: functional; conditions: CAKI-1, 48 h, read-out: GI
PC-3 = assay: Growth inhibition of human PC3 cells at 10 uM incubated for 48 hrs by sulforhodamine B assay relative to control; type: functional; conditions: PC-3, 48 h, read-out: GI
MCF7 [3] = assay: Cytotoxicity against human MCF7 cells expressing VEGFR2 and wild type BRAF measured after 48 hrs by sulforhodamine B assay; type: functional, cell-based; conditions: MCF7, 48 h
[4] = target: Serine/threonine-protein kinase B-raf (Homo sapiens, UniProt P15056); assay: Inhibition of human wild type BRAF by Kinase-Glo luminescence assay
A549 = assay: Growth inhibition of human A549/ATCC cells at 10 uM incubated for 48 hrs by sulforhodamine B assay relative to control; type: functional; conditions: A549, 48 h, read-out: GI
RPMI-8226 = assay: Growth inhibition of human RPMI8226 cells at 10 uM incubated for 48 hrs by sulforhodamine B assay relative to control; type: functional; conditions: RPMI-8226, 48 h, read-out: GI
T47D [5] = assay: Growth inhibition of human T47D cells at 10 uM incubated for 48 hrs by sulforhodamine B assay relative to control; type: functional; conditions: read-out: GI
NCI-H226 = assay: Growth inhibition of human NCI-H226 cells at 10 uM incubated for 48 hrs by sulforhodamine B assay relative to control; type: functional; conditions: NCI-H226, 48 h, read-out: GI
A498 = assay: Growth inhibition of human A498 cells at 10 uM incubated for 48 hrs by sulforhodamine B assay relative to control; type: functional; conditions: A498, 48 h, read-out: GI
KM12 = assay: Growth inhibition of human KM12 cells at 10 uM incubated for 48 hrs by sulforhodamine B assay relative to control; type: functional; conditions: KM12, 48 h, read-out: GI
M14 = assay: Growth inhibition of human M14 cells at 10 uM incubated for 48 hrs by sulforhodamine B assay relative to control; type: functional; conditions: M14, 48 h, read-out: GI
SN12C = assay: Growth inhibition of human SN12C cells at 10 uM incubated for 48 hrs by sulforhodamine B assay relative to control; type: functional; conditions: read-out: GI
HT-29 = assay: Growth inhibition of human HT-29 cells at 10 uM incubated for 48 hrs by sulforhodamine B assay relative to control; type: functional; conditions: HT-29, 48 h, read-out: GI
MDA-MB-468 = assay: Growth inhibition of human MDA-MB-468 cells at 10 uM incubated for 48 hrs by sulforhodamine B assay relative to control; type: functional; conditions: MDA-MB-468, 48 h, read-out: GI
MDA-MB-231 = assay: Growth inhibition of human MDA-MB-231 cells at 10 uM incubated for 48 hrs by sulforhodamine B assay relative to control; type: functional; conditions: MDA-MB-231, 48 h, read-out: GI
[6] = target: Vascular endothelial growth factor receptor 2 (Homo sapiens, UniProt P35968); assay: Inhibition of human N-terminal GST tagged VEGFR-2 expressed in baculovirus infected Sf9 cells using poly (Glu,Tyr) 4:1 as substrate in presence of ATP by Kinase-Glo luminescence assay
OVCAR-4 = assay: Growth inhibition of human OVCAR4 cells at 10 uM incubated for 48 hrs by sulforhodamine B assay relative to control; type: functional; conditions: OVCAR-4, 48 h, read-out: GI
NCI-H23 = assay: Growth inhibition of human NCI-H23 cells at 10 uM incubated for 48 hrs by sulforhodamine B assay relative to control; type: functional; conditions: NCI-H23, 48 h, read-out: GI
SF-539 = assay: Growth inhibition of human SF539 cells at 10 uM incubated for 48 hrs by sulforhodamine B assay relative to control; type: functional; conditions: SF-539, 48 h, read-out: GI
MCF7 [7] = assay: Inhibition of VEGFR2 level in human MCF7 cells at 10 uM measured after 48 hrs by ELISA relative to control; type: functional; conditions: MCF7, 48 h
HCT-15 = assay: Growth inhibition of human HCT15 cells at 10 uM incubated for 48 hrs by sulforhodamine B assay relative to control; type: functional; conditions: HCT-15, 48 h, read-out: GI

Sequence of Vascular endothelial growth factor receptor 2 (P35968 whole entry): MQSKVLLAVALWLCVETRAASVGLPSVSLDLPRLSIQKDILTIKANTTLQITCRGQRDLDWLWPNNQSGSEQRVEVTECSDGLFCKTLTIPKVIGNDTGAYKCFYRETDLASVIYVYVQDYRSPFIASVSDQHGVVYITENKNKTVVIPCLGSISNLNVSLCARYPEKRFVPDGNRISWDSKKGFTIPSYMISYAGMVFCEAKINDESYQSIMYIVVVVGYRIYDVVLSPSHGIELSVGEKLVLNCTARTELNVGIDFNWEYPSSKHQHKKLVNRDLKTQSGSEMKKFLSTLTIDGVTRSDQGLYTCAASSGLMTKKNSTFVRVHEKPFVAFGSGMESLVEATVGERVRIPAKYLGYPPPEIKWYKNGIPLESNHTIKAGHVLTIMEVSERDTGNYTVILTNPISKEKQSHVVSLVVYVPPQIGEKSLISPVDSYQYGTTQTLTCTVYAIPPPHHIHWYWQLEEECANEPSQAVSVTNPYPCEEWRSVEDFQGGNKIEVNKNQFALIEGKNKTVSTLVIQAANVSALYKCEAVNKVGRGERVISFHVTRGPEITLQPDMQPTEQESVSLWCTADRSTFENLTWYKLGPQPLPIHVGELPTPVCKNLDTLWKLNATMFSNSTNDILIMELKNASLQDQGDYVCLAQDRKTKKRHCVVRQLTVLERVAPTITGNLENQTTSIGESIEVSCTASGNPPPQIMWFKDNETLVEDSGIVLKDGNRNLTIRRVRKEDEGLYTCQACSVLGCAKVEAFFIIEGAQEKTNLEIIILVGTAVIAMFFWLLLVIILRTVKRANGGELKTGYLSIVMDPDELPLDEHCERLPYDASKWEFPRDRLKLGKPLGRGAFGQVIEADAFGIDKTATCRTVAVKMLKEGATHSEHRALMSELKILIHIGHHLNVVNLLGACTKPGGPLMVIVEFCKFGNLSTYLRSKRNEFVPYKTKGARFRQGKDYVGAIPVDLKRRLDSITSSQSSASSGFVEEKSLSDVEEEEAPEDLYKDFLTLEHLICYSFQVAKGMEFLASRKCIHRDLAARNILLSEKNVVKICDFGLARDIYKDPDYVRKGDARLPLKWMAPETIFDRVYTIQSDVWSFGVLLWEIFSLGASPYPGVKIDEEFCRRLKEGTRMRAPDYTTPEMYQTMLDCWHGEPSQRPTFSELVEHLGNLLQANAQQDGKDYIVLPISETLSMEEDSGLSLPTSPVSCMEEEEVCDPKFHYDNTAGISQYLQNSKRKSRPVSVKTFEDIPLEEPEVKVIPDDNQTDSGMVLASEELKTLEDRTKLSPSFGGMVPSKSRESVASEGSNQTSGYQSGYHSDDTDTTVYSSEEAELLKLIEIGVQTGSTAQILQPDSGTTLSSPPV
Sequence of Serine/threonine-protein kinase B-raf (P15056 whole entry): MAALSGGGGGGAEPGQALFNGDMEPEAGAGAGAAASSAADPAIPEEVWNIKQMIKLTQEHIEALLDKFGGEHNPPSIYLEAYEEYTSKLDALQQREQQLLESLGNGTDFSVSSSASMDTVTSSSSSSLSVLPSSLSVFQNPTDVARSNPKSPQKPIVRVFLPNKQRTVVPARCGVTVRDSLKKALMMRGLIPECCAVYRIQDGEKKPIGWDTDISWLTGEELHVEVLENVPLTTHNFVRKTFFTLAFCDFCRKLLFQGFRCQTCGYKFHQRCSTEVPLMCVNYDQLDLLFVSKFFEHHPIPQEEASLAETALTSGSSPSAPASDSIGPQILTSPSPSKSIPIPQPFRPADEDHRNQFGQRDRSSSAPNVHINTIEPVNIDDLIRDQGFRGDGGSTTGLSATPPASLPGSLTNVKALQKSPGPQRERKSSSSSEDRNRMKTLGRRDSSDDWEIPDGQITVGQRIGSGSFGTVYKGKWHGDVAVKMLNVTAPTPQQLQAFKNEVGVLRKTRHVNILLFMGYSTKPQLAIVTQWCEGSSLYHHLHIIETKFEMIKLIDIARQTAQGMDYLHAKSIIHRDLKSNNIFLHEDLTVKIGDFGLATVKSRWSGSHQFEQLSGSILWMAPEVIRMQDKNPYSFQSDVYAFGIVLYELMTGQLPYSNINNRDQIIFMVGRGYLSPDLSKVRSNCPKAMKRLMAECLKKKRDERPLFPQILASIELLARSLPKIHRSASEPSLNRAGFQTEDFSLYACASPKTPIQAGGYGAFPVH

SMILES: CCOC(=O)c1ccc(Nc2ccnc(SCC(=O)c3ccc([N+](=O)[O-])cc3)n2)cc1
- inhibition of growth at 10 µM (K562): 37%
- inhibition of growth at 10 µM (SK-MEL-5): 41%
- inhibition of growth at 10 µM (SK-MEL-28): 11%
- inhibition of growth at 10 µM (NCI-H522): 37%
- inhibition of growth at 10 µM (ACHN): 15%
- inhibition of growth at 10 µM (CCRF-CEM): 49%
- inhibition of growth at 10 µM (OVCAR-8): 31%
- inhibition of growth at 10 µM (MOLT-4): 58%
- inhibition of growth at 10 µM (UACC-257): 13%
- inhibition of growth at 10 µM (NCI-H460): 11%
- inhibition of growth at 10 µM (MDA-MB-435): 15%
- IC50 (T47D [1]): 8.09 µM
- inhibition of growth at 10 µM (MCF7 [2]): 22%
- inhibition of growth at 10 µM (IGROV-1): 19%
- inhibition of growth at 10 µM (LOX IMVI): 10%
- inhibition of growth at 10 µM (SR): 35%
- inhibition of growth at 10 µM (BT-549): 28%
- inhibition of growth at 10 µM (DU-145): 16%
- inhibition of growth at 10 µM (UO-31): 41%
- inhibition of growth at 10 µM (UACC-62): 29%
- inhibition of growth at 10 µM (NCI/ADR-RES): 27%
- inhibition of growth at 10 µM (SF-295): 28%
- inhibition of growth at 10 µM (EKVX): 27%
- inhibition of growth at 10 µM (HCT-116): 26%
- inhibition of growth at 10 µM (CAKI-1): 16%
- inhibition of growth at 10 µM (PC-3): 33%
- IC50 (MCF7 [3]): 16.5 µM
- IC50 [4]: 0.22 µM
- inhibition of growth at 10 µM (A549): 21%
- inhibition of growth at 10 µM (RPMI-8226): 54%
- inhibition of growth at 10 µM (T47D [5]): 60%
- inhibition of growth at 10 µM (NCI-H226): 16%
- inhibition of growth at 10 µM (A498): 61%
- inhibition of growth at 10 µM (KM12): 21%
- inhibition of growth at 10 µM (M14): 16%
- inhibition of growth at 10 µM (SN12C): 17%
- inhibition of growth at 10 µM (HT-29): 19%
- inhibition of growth at 10 µM (MDA-MB-468): 51%
- inhibition of growth at 10 µM (MDA-MB-231): 22%
- IC50 [6]: 0.41 µM
- inhibition of growth at 10 µM (OVCAR-4): 20%
- inhibition of growth at 10 µM (NCI-H23): 13%
- inhibition of growth at 10 µM (SF-539): 11%
- inhibition at 10 µM (MCF7 [7]): 80%
- inhibition of growth at 10 µM (HCT-15): 13%
